Some test systems named below: SK-OV-3 ovarian; KM12 colon; NCI/ADR-RES ovarian; SNB-75 CNS; U251 CNS; MDA-MB-435; M14 melanoma; PC-3 prostate.
Common to all, as to experiment: NCI anticancer screen, dose series, 48 h

Each structure is given as a SMILES string.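 Exposure lasted 48 hours, with cells grown in 96-well plates and compounds tested at five concentrations. Abbreviation: GI50, concentration required for 50% inhibition of growth. TGI is the concentration that stops growth completely.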

In the case of `COC1=CC(c2ccc[nH]2)=N/C1=C\c1[nH]c(C)c(C(=O)CCCCCCCCC(=O)O[C@H]2CC[C@H]3C4CCc5cc(O)ccc5C4CC[C@]23C)c1C` (some centres undefined), the GI50 was 5.02 µM in the assay on SK-OV-3 ovarian; 0.379 µM in the assay on KM12 colon; 25.9 µM with NCI/ADR-RES ovarian; 0.29 µM in the assay on SNB-75 CNS; 0.331 µM with U251 CNS; 0.272 µM with MDA-MB-435. Besides, the figures for the GI50 with M14 melanoma and with PC-3 prostate were 0.235 µM and 0.327 µM, respectively. The TGI in the assay with SK-OV-3 ovarian was above 50 µM; with KM12 colon it was above 50 µM; with NCI/ADR-RES ovarian, above 50 µM; with SNB-75 CNS, 2.79 µM; with U251 CNS, above 50 µM; with MDA-MB-435 it was above 24.2 µM. Besides, the values for the TGI in the assay on M14 melanoma and in the assay with PC-3 prostate were 2.23 µM and above 50 µM, respectively.
For `CCCCCCCC(=O)OCC/C=C/C1OC1C1OC(=O)/C=C\C=C\C(=O)N(C(C)=O)C(=O)/C=C(/C)CCC2OC2C1OC(=O)NC(C)=O` (centres undefined), the GI50 in the assay with SK-OV-3 ovarian was above 25 µM; in the assay with KM12 colon it was 3.88 µM; with NCI/ADR-RES ovarian, above 25 µM; in the assay with SNB-75 CNS, 4.79 µM; with U251 CNS, 5.54 µM; in the assay on MDA-MB-435, 5.85 µM. Besides, the GI50 in the assay with M14 melanoma was 6.83 µM; in the assay with PC-3 prostate, 3.15 µM. Also, the TGI in the assay on SK-OV-3 ovarian was above 25 µM; in the assay with KM12 colon it was 11.7 µM; in the assay on NCI/ADR-RES ovarian it was above 25 µM; with SNB-75 CNS, 17.9 µM; in the assay with U251 CNS, 15 µM; with MDA-MB-435, 24.8 µM. The TGI was above 25 µM with M14 melanoma and 8.04 µM in the assay with PC-3 prostate.
As for `Cc1ccc(/C(=N/Nc2ccc([N+](=O)[O-])cc2)Sc2cc(Cl)c(C)cc2S(N)(=O)=O)cc1`, the GI50 in the assay with SK-OV-3 ovarian was 1.94 µM; in the assay on KM12 colon it was 1.37 µM; in the assay on NCI/ADR-RES ovarian, 2.03 µM; in the assay on SNB-75 CNS, 2.06 µM; with U251 CNS, 4.34 µM; with MDA-MB-435, 1.73 µM. Moreover, the GI50 is 1.78 µM in the assay with M14 melanoma and 1.79 µM with PC-3 prostate. Besides, the TGI in the assay with SK-OV-3 ovarian was 4.34 µM; in the assay on KM12 colon, 3.18 µM; with NCI/ADR-RES ovarian, 4.91 µM; in the assay on SNB-75 CNS, 3.94 µM; with U251 CNS, 16.7 µM; in the assay on MDA-MB-435, 3.89 µM. Besides, the TGI with M14 melanoma came out at 3.85 µM; with PC-3 prostate it was 4.47 µM.
With `Cn1c(I)c(C#C[Si](C)(C)C)c(=O)n(C(=O)c2ccccc2)c1=O`, the GI50 with SK-OV-3 ovarian was 0.529 µM; in the assay with KM12 colon it was 12.1 µM; in the assay with NCI/ADR-RES ovarian it was 22.4 µM; in the assay with SNB-75 CNS it was 4.2 µM; in the assay with U251 CNS it was 12.5 µM; in the assay on MDA-MB-435, 3.42 µM. Also, the figures for the GI50 in the assay on M14 melanoma and in the assay on PC-3 prostate were 1.99 µM and 3.52 µM, respectively. The TGI in the assay on SK-OV-3 ovarian came to 21.7 µM; with KM12 colon it was 27.8 µM; in the assay with NCI/ADR-RES ovarian it was 48.8 µM; with SNB-75 CNS, 20.5 µM; with U251 CNS, 25 µM; in the assay with MDA-MB-435, 13.4 µM. Besides, the TGI in the assay with M14 melanoma stood at 4.16 µM; with PC-3 prostate, 13.5 µM.
As to `COc1cc(O)ccc1C(=S)SC`, the TGI in the assay on SK-OV-3 ovarian, in the assay on KM12 colon, in the assay on NCI/ADR-RES ovarian, in the assay on SNB-75 CNS, in the assay on U251 CNS and in the assay on MDA-MB-435 was above 100 µM throughout. Moreover, the TGI in the assay with M14 melanoma and with PC-3 prostate was above 100 µM in each case.
For `COC(=O)C(C(=O)C(=O)Nc1c(C)cccc1C(C)(C)C)c1nc2ccc(Cl)cc2[nH]c1=O` (centres undefined), the TGI in the assay on SK-OV-3 ovarian, with KM12 colon, in the assay on NCI/ADR-RES ovarian, in the assay with SNB-75 CNS, in the assay on U251 CNS and in the assay on MDA-MB-435 was above 100 µM each time. The TGI with M14 melanoma and with PC-3 prostate was above 100 µM each time.
For `O=C(Nc1n[nH]c2cc(-c3cc(F)ccc3F)ccc12)C1CC1`, the GI50 in the assay on SK-OV-3 ovarian was 11.1 µM; in the assay on KM12 colon, 8.08 µM; with NCI/ADR-RES ovarian, 9.31 µM; in the assay on SNB-75 CNS it was above 15.8 µM; with U251 CNS, 15.3 µM; in the assay with MDA-MB-435, 4.56 µM. In addition, the GI50 with M14 melanoma is 13.8 µM; in the assay on PC-3 prostate, 17.6 µM. The TGI in the assay on SK-OV-3 ovarian is above 25 µM; in the assay on KM12 colon, above 25 µM; with NCI/ADR-RES ovarian, above 25 µM; in the assay with SNB-75 CNS it was above 25 µM; in the assay with U251 CNS it was above 25 µM; in the assay on MDA-MB-435, 21.5 µM. For the same compound, the TGI with M14 melanoma and in the assay on PC-3 prostate was above 25 µM throughout.
In the case of `Cc1n[nH]c2ccccc2c1=O`, the TGI with SK-OV-3 ovarian, in the assay with KM12 colon, with NCI/ADR-RES ovarian, in the assay on SNB-75 CNS, in the assay with U251 CNS and in the assay with MDA-MB-435 was above 100 µM throughout. The TGI in the assay on M14 melanoma and in the assay on PC-3 prostate was above 100 µM in each case.
Regarding `O=C1c2cccc3cccc(c23)C(=O)N1CCCCCN1CCN(CCN=c2cc3n(-c4ccc(Cl)cc4)c4ccccc4nc-3cc2Nc2ccc(Cl)cc2)CC1`, the GI50 was above 50 µM in the assay on SK-OV-3 ovarian; 11.9 µM in the assay with KM12 colon; 6.95 µM in the assay with NCI/ADR-RES ovarian; 14.5 µM in the assay on SNB-75 CNS; 14.2 µM in the assay with U251 CNS; 9.21 µM in the assay on MDA-MB-435. The GI50 is 7.53 µM with M14 melanoma and 6.36 µM with PC-3 prostate. The TGI in the assay on SK-OV-3 ovarian was above 50 µM; in the assay on KM12 colon, 46.3 µM; in the assay on NCI/ADR-RES ovarian it was 19.4 µM; with SNB-75 CNS, 39.6 µM; with U251 CNS, 40.3 µM; in the assay with MDA-MB-435, 21.4 µM. Further, the results for the TGI in the assay with M14 melanoma and with PC-3 prostate were 16.5 µM and 28.4 µM, respectively.
Regarding `COc1cc(/C=N/NC(=O)c2cnn3c2NC(c2ccccc2)C3)ccc1OC1CCCC1` (centres undefined), the GI50 is 1.57 µM in the assay with SK-OV-3 ovarian; 0.39 µM in the assay with KM12 colon; 0.884 µM in the assay with NCI/ADR-RES ovarian; 0.207 µM in the assay with SNB-75 CNS; 0.92 µM in the assay on U251 CNS; 0.258 µM in the assay on MDA-MB-435. The GI50 in the assay with M14 melanoma was 0.646 µM; in the assay on PC-3 prostate, 0.503 µM. The TGI amounted to 8.49 µM with SK-OV-3 ovarian; 4.46 µM in the assay with KM12 colon; 4.35 µM in the assay with NCI/ADR-RES ovarian; 0.778 µM in the assay with SNB-75 CNS; 5.91 µM in the assay on U251 CNS; 1.28 µM in the assay with MDA-MB-435. Also, the TGI in the assay with M14 melanoma is 5.19 µM; in the assay with PC-3 prostate, 3.44 µM.
`C=C1C(=O)O[C@@H]2/C=C(/C)[C@@H](OC(C)=O)C/C=C(\C)C(O)[C@@H](OC(=O)/C(C)=C\C)C12` (some centres undefined): the TGI was above 100 µM in the assay with SK-OV-3 ovarian; above 100 µM in the assay on KM12 colon; 76.5 µM in the assay on NCI/ADR-RES ovarian; above 100 µM in the assay on SNB-75 CNS; above 100 µM in the assay with U251 CNS; 57.5 µM in the assay with MDA-MB-435. Besides, the TGI in the assay on M14 melanoma and in the assay on PC-3 prostate was above 100 µM throughout.

The values are drawn from PubChem BioAssay (NCI).
